Test results published in the supplement of paper PMC11061612.

Tests used:
[1] = tested on: L-540 (Hodgkin's Lymphoma); test: Bliss excess, mean over the matrix (fraction); higher = more synergy
In short: (§1)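 Cell lines grown in DMEM/F12 or RPMI with 10% FBS were plated in 1536-well plates and held 24 hours at 37°C, 5% CO2 before 72 hours of exposure to two-drug dose matrices, with DMSO typically at 0.2%. CellTiter-Glo 2.0 luminescence gave viability, which was converted to inhibition. Vehicle wells were set to 0 and blank wells to 1. Combination Emax is the second-highest inhibition in the matrix, and Bliss excess is the observed combination effect minus the expected EA + EB − EA·EB, where EA and EB are the single-agent effects.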

[2] = tested on: K-562 (Chronic Myelogenous Leukemia); test: as above
In short: as §1

[3] = tested on: BL-41 (Burkitt's Lymphoma); test: as above
In short: as §1

[4] = tested on: CAMA-1 (Breast Carcinoma); test: as above
In short: as §1

ES8 (Ewing's Sarcoma) [5] = test: as above
In short: as §1

[6] = tested on: SW1417 (Colorectal Carcinoma); test: as above
In short: as §1

NCI-H2818 (Mesothelioma) [7] = test: as above
In short: as §1

[8] = tested on: MKN28 (Gastric Carcinoma); test: as above
In short: as §1

[9] = tested on: SW837 (Colorectal Carcinoma); test: as above
In short: as §1

WIL2-NS (Non-Cancerous) [10] = test: as above
In short: as §1

[11] = tested on: NCI-H1792 (Lung Adenocarcinoma); test: as above
In short: as §1

[12] = tested on: GR-ST (B-Lymphoblastic Leukemia); test: as above
In short: as §1

ES1 (Ewing's Sarcoma) [13] = test: as above
In short: as §1

[14] = tested on: BFTC-905 (Bladder Carcinoma); test: as above
In short: as §1

[15] = tested on: DND-41 (T-Lymphoblastic Leukemia); test: as above
In short: as §1

WM-115 (Melanoma) [16] = test: as above
In short: as §1

[17] = tested on: SR (Other Blood Carcinomas); test: as above
In short: as §1

[18] = tested on: L-540 (Hodgkin's Lymphoma); test: combination Emax (second highest fraction inhibited in the dose matrix, 72 h); higher = more inhibition; extreme values may be limits of the assay
In short: as §1

[19] = tested on: K-562 (Chronic Myelogenous Leukemia); test: as above
In short: as §1

[20] = tested on: BL-41 (Burkitt's Lymphoma); test: as above
In short: as §1

[21] = tested on: CAMA-1 (Breast Carcinoma); test: as above
In short: as §1

ES8 (Ewing's Sarcoma) [22] = test: as above
In short: as §1

[23] = tested on: SW1417 (Colorectal Carcinoma); test: as above
In short: as §1

NCI-H2818 (Mesothelioma) [24] = test: as above
In short: as §1

[25] = tested on: MKN28 (Gastric Carcinoma); test: as above
In short: as §1

[26] = tested on: SW837 (Colorectal Carcinoma); test: as above
In short: as §1

WIL2-NS (Non-Cancerous) [27] = test: as above
In short: as §1

[28] = tested on: NCI-H1792 (Lung Adenocarcinoma); test: as above
In short: as §1

[29] = tested on: GR-ST (B-Lymphoblastic Leukemia); test: as above
In short: as §1

ES1 (Ewing's Sarcoma) [30] = test: as above
In short: as §1

[31] = tested on: BFTC-905 (Bladder Carcinoma); test: as above
In short: as §1

[32] = tested on: DND-41 (T-Lymphoblastic Leukemia); test: as above
In short: as §1

WM-115 (Melanoma) [33] = test: as above
In short: as §1

[34] = tested on: SR (Other Blood Carcinomas); test: as above
In short: as §1
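Wherever Bliss excess, mean over the matrix is given: after 72 h of two-drug dosing.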

Compound	Bliss excess [1]	Bliss excess [2]	Bliss excess [3]	Bliss excess [4]	Bliss excess (ES8 (Ewing's Sarcoma) [5])	Bliss excess [6]	Bliss excess (NCI-H2818 (Mesothelioma) [7])	Bliss excess [8]	Bliss excess [9]	Bliss excess (WIL2-NS (Non-Cancerous) [10])	Bliss excess [11]	Bliss excess [12]	Bliss excess (ES1 (Ewing's Sarcoma) [13])	Bliss excess [14]	Bliss excess [15]	Bliss excess (WM-115 (Melanoma) [16])	Bliss excess [17]	combination Emax [18]	combination Emax [19]	combination Emax [20]	combination Emax [21]	combination Emax (ES8 (Ewing's Sarcoma) [22])	combination Emax [23]	combination Emax (NCI-H2818 (Mesothelioma) [24])	combination Emax [25]	combination Emax [26]	combination Emax (WIL2-NS (Non-Cancerous) [27])	combination Emax [28]	combination Emax [29]	combination Emax (ES1 (Ewing's Sarcoma) [30])	combination Emax [31]	combination Emax [32]	combination Emax (WM-115 (Melanoma) [33])	combination Emax [34]
Cc1c2c(nn1C)CSCc1cc(n(C)n1)CSc1cc(c3ccccc3c1)OCCCc1c(C(=O)O)n(C)c3c-2c(Cl)ccc13 [AZD5991] + Nc1ccn([C@@H]2O[C@H](CO)[C@@H](O)C2(F)F)c(=O)n1 [Gemcitabine] (first compound max 1 µM, 7x7, partner max 0.3 µM)	0.0162	0.0045	-0.0263	0.133	-0.0121	0.0394	-0.0771	-0.0367	-0.0606	-0.0263	-0.0308	-0.0516	0.0102	-0.0194	0.021	-0.0572	0.0073	1	0.222	1	0.942	1	0.332	0.358	0.161	0.273	0.942	0.774	0.791	1	0.909	0.848	0.431	0.991
C[C@@H]1COCCN1c1cc(C2([S@](C)(=N)=O)CC2)nc(-c2ccnc3[nH]ccc23)n1 [AZD6738] + C1CC(C1)(C(=O)[O-])C(=O)[O-].N.N.[Pt+2] [Carboplatin] (first compound max 10 µM, 7x7, partner max 10 µM)	-0.0267	-0.031	-0.0271	-0.0454	0.0982	-0.0074	-0.0286	-0.0242	-0.0837	-0.0241	-0.0303	-0.0241	-0.0078	0.0337	-0.0146	-0.0607	-0.0383	0.894	0.847	0.974	0.381	0.925	0.375	0.378	0.327	0.402	0.922	0.733	0.747	0.917	0.723	0.919	0.425	0.879
C[C@@H]1COCCN1c1cc(C2([S@](C)(=N)=O)CC2)nc(-c2ccnc3[nH]ccc23)n1 [AZD6738] + Nc1ccn([C@@H]2O[C@H](CO)[C@@H](O)C2(F)F)c(=O)n1 [Gemcitabine] (first compound max 10 µM, 7x7, partner max 0.3 µM)	-0.0107	0.0537	-0.0007	0.0878	0.0265	0.0802	0.0515	0.0907	0.065	0.0093	0.0362	0.0085	0.0203	0.0387	0.0586	0.0268	0.0532	0.963	0.916	1	0.587	1	0.77	0.545	0.664	0.779	0.985	0.951	0.889	1	0.915	0.921	0.659	1
Cc1cc2ncnn2cc1Nc1ncc2c(n1)n(C1CCOCC1)c(=O)n2C [AZD7648] + COc1cc([C@@H]2c3cc4c(cc3[C@@H](O[C@@H]3O[C@@H]5CO[C@@H](C)O[C@H]5[C@H](O)[C@H]3O)[C@H]3COC(=O)[C@H]23)OCO4)cc(OC)c1O [Etoposide] (first compound max 10 µM, 7x7, partner max 10 µM)	0.108	0.114	0.0647	-0.012	0.165	0.0288	0.0361	0.0435	0.0591	0.0553	0.0565	0.0727	0.109	0.152	0.115	0.0071	0.193	0.903	0.872	0.998	0.463	0.994	0.382	0.617	0.56	0.358	0.981	0.708	0.703	1	0.903	0.967	0.481	1
C[C@@H](Nc1cc(F)cc(F)c1)c1cc(C(=O)N(C)C)cc2c(=O)cc(N3CCOCC3)oc12 [AZD8186] + C1CN(CCC1(C(=O)N[C@@H](CCO)C2=CC=C(C=C2)Cl)N)C3=NC=NC4=C3C=CN4 [AZD5363] (first compound max 10 µM, 7x7, partner max 10 µM)	-0.024	0.0402	-0.0264	0.0234	0.0216	-0.0038	-0.017	-0.0504	-0.0386	0.0339	-0.0066	-0.03	0.0388	-0.0098	0.0141	-0.0842	-0.0412	0.173	0.253	0.276	0.712	0.625	0.372	0.286	0.107	0.237	0.614	0.344	0.556	0.55	0.423	0.193	0.645	0.297
C[C@@H](Nc1cc(F)cc(F)c1)c1cc(C(=O)N(C)C)cc2c(=O)cc(N3CCOCC3)oc12 [AZD8186] + CC(=O)c1c(C)c2cnc(Nc3ccc(N4CCNCC4)cn3)nc2n(C2CCCC2)c1=O [Palbociclib] (first compound max 10 µM, 7x7, partner max 10 µM)	0.0275	0.0479	-0.0114	0.0447	0.0321	0.0187	0.044	-0.0287	-0.0454	-0.0251	0.0608	0.0215	0.074	0.0553	0.0875	0.0109	0.0382	0.267	0.196	0.245	0.738	0.676	0.395	0.389	0.227	0.213	0.771	0.577	0.725	0.722	0.55	0.504	0.58	0.839
C[C@@H](Oc1cc(-c2cnn(C3CCNCC3)c2)cnc1N)c1c(Cl)ccc(F)c1Cl [Crizotinib] + CC1=C(C(=CC=C1)Cl)NC(=O)C2=CN=C(S2)NC3=CC(=NC(=N3)C)N4CCN(CC4)CCO [Dasatinib] (first compound max 10 µM, 7x7, partner max 2 µM)	-0.0447	0.0162	0.0338	-0.0273	0.0154	0.0352	0.0145	-0.0096	0.0025	0.105	0.0376	0.0129	-0.0149	0.0479	-0.0124	-0.0409	-0.0251	0.629	0.95	0.978	0.184	0.946	0.535	0.589	0.673	0.628	0.635	0.928	0.955	0.843	0.97	0.951	0.49	1
C[C@@H](Oc1cc(-c2cnn(C3CCNCC3)c2)cnc1N)c1c(Cl)ccc(F)c1Cl [Crizotinib] + Cn1cnc2c(F)c(Nc3ccc(Br)cc3Cl)c(C(=O)NOCCO)cc21 [Selumetinib] (first compound max 10 µM, 7x7, partner max 10 µM)	-0.0703	0.0366	-0.0265	-0.042	-0.0482	0.0093	-0.0068	0.016	-0.0422	-0.026	-0.022	-0.0439	-0.0239	-0.0138	0.0194	-0.0547	-0.0195	0.553	0.947	1	0.156	0.921	0.608	0.329	0.516	0.562	0.485	0.917	0.972	0.843	0.912	0.971	0.476	1
